# Reference: patent US20250382344A1, “Soluble GLP1/GIP/NPY2 Receptor Triple Agonists” (Boehringer Ingelheim International GmH, priority 2024, published 2025)
# Assay: Solubility in 0.1 M phosphate buffer at pH 7
# Type: physicochemical
# Conditions: 0.1 M phosphate buffer at pH 7, 10 mg/mL final peptide concentration, shaking 2 hours at room temperature, peptides as TFA-salts, measured sample pH 6.5-7.0; for solubility: read-out: Solubility
SMILES,solubility [µg/mL],solubility at 2 h [µg/mL]
"CC[C@H](C)[C@H](NC(=O)[C@H](CC(C)C)NC(=O)[C@H](Cc1c[nH]cn1)NC(=O)[C@H](CCCNC(=N)N)NC(=O)[C@@H](NC(=O)[C@H](Cc1ccccc1)NC(=O)[C@H](C)NC(=O)C(C)(C)NC(=O)[C@H](C)NC(=O)[C@H](C)NC(=O)[C@H](CCC(N)=O)NC(=O)[C@H](CCCCN)NC(=O)[C@H](CCC(=O)O)NC(=O)[C@H](CC(C)C)NC(=O)C(C)(C)NC(=O)[C@@H](NC(=O)[C@H](CO)NC(=O)[C@H](Cc1ccc(O)cc1)NC(=O)[C@H](CC(=O)O)NC(=O)[C@H](CO)NC(=O)[C@@H](NC(=O)[C@H](Cc1ccccc1)NC(=O)[C@@H](NC(=O)CNC(=O)[C@H](CCC(=O)O)NC(=O)C(C)(C)NC(=O)[C@@H](N)Cc1ccc(O)cc1)[C@@H](C)O)[C@@H](C)O)[C@@H](C)CC)C(C)C)C(=O)N[C@@H](CC(N)=O)C(=O)N[C@@H](CCCCNC(=O)[C@@H](N)CCCCNC(=O)CC[C@H](NC(=O)CC[C@H](NC(=O)CC[C@H](NC(=O)CC[C@H](NC(=O)CC[C@H](NC(=O)CC[C@H](NC(=O)CCCCCCCCCCCCCCCCC(=O)O)C(=O)O)C(=O)O)C(=O)O)C(=O)O)C(=O)O)C(=O)O)C(=O)NC(C)(C)C(=O)N[C@H](C(=O)N[C@@H](CCCNC(=N)N)C(=O)N[C@@H](CCC(N)=O)C(=O)N[C@@H](CCCNC(=N)N)C(=O)N[C@@H](Cc1ccc(O)cc1)C(N)=O)[C@@H](C)O [Compound 111, Y-Aib-E-G-T-F-T-S-D-Y-S-I-Aib-L-E-K-Q-A-A-Aib-A-F-V-R-H-L-I-N-K(1,3)-Aib-T-R-Q-R-Y-NH2.C18DA-gGlu-gGlu-gGlu-gGlu-gGlu-gGlu-eLys(1,2)]",4000,–
"CC[C@H](C)[C@H](NC(=O)[C@H](CC(C)C)NC(=O)[C@H](Cc1c[nH]cn1)NC(=O)[C@H](CCCNC(=N)N)NC(=O)[C@@H](NC(=O)[C@H](Cc1ccccc1)NC(=O)[C@H](CCC(=O)O)NC(=O)C(C)(C)NC(=O)[C@H](CCC(N)=O)NC(=O)[C@H](C)NC(=O)[C@H](CCC(N)=O)NC(=O)[C@H](CCCCN)NC(=O)[C@H](CCC(=O)O)NC(=O)[C@H](CC(C)C)NC(=O)C(C)(C)NC(=O)[C@@H](NC(=O)[C@H](CO)NC(=O)[C@H](Cc1ccc(O)cc1)NC(=O)[C@H](CC(=O)O)NC(=O)[C@H](CO)NC(=O)[C@@H](NC(=O)[C@H](Cc1ccccc1)NC(=O)[C@@H](NC(=O)CNC(=O)[C@H](CCC(=O)O)NC(=O)C(C)(C)NC(=O)[C@@H](N)Cc1ccc(O)cc1)[C@@H](C)O)[C@@H](C)O)[C@@H](C)CC)C(C)C)C(=O)N[C@@H](CC(N)=O)C(=O)N[C@@H](CCCCNC(=O)CCCCCNC(=O)CC[C@H](NC(=O)[C@H](CCC(=O)O)NC(=O)CC[C@H](NC(=O)CC[C@H](NC(=O)CC[C@H](NC(=O)CCCCCCCCCCCCCCCCC(=O)O)C(=O)O)C(=O)O)C(=O)O)C(=O)O)C(=O)N[C@@H](CC(C)C)C(=O)N[C@H](C(=O)N[C@@H](CCCNC(=N)N)C(=O)N[C@@H](CCC(N)=O)C(=O)N[C@@H](CCCNC(=N)N)C(=O)N[C@@H](Cc1ccc(O)cc1)C(N)=O)[C@@H](C)O [Compound 45, Y-Aib-E-G-T-F-T-S-D-Y-S-I-Aib-L-E-K-Q-A-Q-Aib-E-F-V-R-H-L-I-N-K(1,3)-L-T-R-Q-R-Y-NH2.C18DA-gGlu-gGlu-gGlu-gGlu-gGlu-AHX(1,2)]",5000,–
"CC[C@H](C)[C@H](NC(=O)[C@H](CC(C)C)NC(=O)[C@H](Cc1c[nH]cn1)NC(=O)[C@H](CCCNC(=N)N)NC(=O)[C@@H](NC(=O)[C@H](Cc1ccccc1)NC(=O)[C@H](C)NC(=O)C(C)(C)NC(=O)[C@H](CCC(N)=O)NC(=O)[C@H](CCC(=O)O)NC(=O)[C@H](CCC(N)=O)NC(=O)[C@H](CCCCN)NC(=O)[C@H](CCC(=O)O)NC(=O)[C@H](CC(C)C)NC(=O)C(C)(C)NC(=O)[C@@H](NC(=O)[C@H](CO)NC(=O)[C@H](Cc1ccc(O)cc1)NC(=O)[C@H](CC(=O)O)NC(=O)[C@H](CO)NC(=O)[C@@H](NC(=O)[C@H](Cc1ccccc1)NC(=O)[C@@H](NC(=O)CNC(=O)[C@H](CCC(=O)O)NC(=O)C(C)(C)NC(=O)[C@@H](N)Cc1ccc(O)cc1)[C@@H](C)O)[C@@H](C)O)[C@@H](C)CC)C(C)C)C(=O)N[C@@H](CC(N)=O)C(=O)N[C@@H](CCCCNC(=O)[C@@H](N)CCCCNC(=O)CC[C@H](NC(=O)CC[C@H](NC(=O)CC[C@H](NC(=O)CC[C@H](NC(=O)CC[C@H](NC(=O)CC[C@H](NC(=O)CCCCCCCCCCCCCCCCC(=O)O)C(=O)O)C(=O)O)C(=O)O)C(=O)O)C(=O)O)C(=O)O)C(=O)NC(C)(C)C(=O)N[C@H](C(=O)N[C@@H](CCCNC(=N)N)C(=O)N[C@@H](CCC(N)=O)C(=O)N[C@@H](CCCNC(=N)N)C(=O)N[C@@H](Cc1ccc(O)cc1)C(N)=O)[C@@H](C)O [Compound 36, Y-Aib-E-G-T-F-T-S-D-Y-S-I-Aib-L-E-K-Q-E-Q-Aib-A-F-V-R-H-L-I-N-K(1,3)-Aib-T-R-Q-R-Y-NH2.C18DA-gGlu-gGlu-gGlu-gGlu-gGlu-gGlu-eLys(1,2)]",–,5000

# Results, then the compound that gave them:
solubility [µg/mL],solubility at 2 h [µg/mL],SMILES
–,4400,"CC[C@H](C)[C@H](NC(=O)[C@H](CC(C)C)NC(=O)[C@H](Cc1c[nH]cn1)NC(=O)[C@H](CCCNC(=N)N)NC(=O)[C@@H](NC(=O)[C@H](Cc1ccccc1)NC(=O)[C@H](C)NC(=O)C(C)(C)NC(=O)[C@H](CCC(N)=O)NC(=O)[C@H](C)NC(=O)[C@H](CCC(N)=O)NC(=O)CNC(=O)[C@H](CCC(=O)O)NC(=O)[C@H](CC(C)C)NC(=O)C(C)(C)NC(=O)[C@@H](NC(=O)[C@H](CO)NC(=O)[C@H](Cc1ccc(O)cc1)NC(=O)[C@H](CC(=O)O)NC(=O)[C@H](CO)NC(=O)[C@@H](NC(=O)[C@H](Cc1ccccc1)NC(=O)[C@@H](NC(=O)CNC(=O)[C@H](CCC(=O)O)NC(=O)C(C)(C)NC(=O)[C@@H](N)Cc1ccc(O)cc1)[C@@H](C)O)[C@@H](C)O)[C@@H](C)CC)C(C)C)C(=O)N[C@@H](CC(N)=O)C(=O)N[C@@H](CCCCNC(=O)[C@@H](N)CCCCNC(=O)CC[C@H](NC(=O)CC[C@H](NC(=O)CC[C@H](NC(=O)CC[C@H](NC(=O)CC[C@H](NC(=O)CC[C@H](NC(=O)CCCCCCCCCCCCCCCCC(=O)O)C(=O)O)C(=O)O)C(=O)O)C(=O)O)C(=O)O)C(=O)O)C(=O)NC(C)(C)C(=O)N[C@H](C(=O)N[C@@H](CCCNC(=N)N)C(=O)N[C@@H](CCC(N)=O)C(=O)N[C@@H](CCCNC(=N)N)C(=O)N[C@@H](Cc1ccc(O)cc1)C(N)=O)[C@@H](C)O [Compound 95, Y-Aib-E-G-T-F-T-S-D-Y-S-I-Aib-L-E-G-Q-A-Q-Aib-A-F-V-R-H-L-I-N-K(1,3)-Aib-T-R-Q-R-Y-NH2.C18DA-gGlu-gGlu-gGlu-gGlu-gGlu-gGlu-eLys(1,2)]"
9200,–,"CC[C@H](C)[C@H](NC(=O)[C@H](CC(C)C)NC(=O)[C@H](Cc1c[nH]cn1)NC(=O)[C@H](CCCNC(=N)N)NC(=O)[C@@H](NC(=O)[C@H](Cc1ccccc1)NC(=O)[C@H](C)NC(=O)C(C)(C)NC(=O)[C@H](CCC(N)=O)NC(=O)[C@H](C)NC(=O)[C@H](CCC(N)=O)NC(=O)[C@H](CCC(=O)O)NC(=O)[C@H](CC(=O)O)NC(=O)[C@H](CC(C)C)NC(=O)C(C)(C)NC(=O)[C@@H](NC(=O)[C@H](CO)NC(=O)[C@H](Cc1ccc(O)cc1)NC(=O)[C@H](CC(=O)O)NC(=O)[C@H](CO)NC(=O)[C@@H](NC(=O)[C@H](Cc1ccccc1)NC(=O)[C@@H](NC(=O)CNC(=O)[C@H](CCC(=O)O)NC(=O)C(C)(C)NC(=O)[C@@H](N)Cc1ccc(O)cc1)[C@@H](C)O)[C@@H](C)O)[C@@H](C)CC)C(C)C)C(=O)N[C@@H](CC(N)=O)C(=O)N[C@@H](CCCCNC(=O)[C@@H](N)CCCCNC(=O)CC[C@H](NC(=O)CC[C@H](NC(=O)CC[C@H](NC(=O)CC[C@H](NC(=O)CC[C@H](NC(=O)CCCCCCCCCCCCCCCCC(=O)O)C(=O)O)C(=O)O)C(=O)O)C(=O)O)C(=O)O)C(=O)NC(C)(C)C(=O)N[C@H](C(=O)N[C@@H](CCCNC(=N)N)C(=O)N[C@@H](CCC(N)=O)C(=O)N[C@@H](CCCNC(=N)N)C(=O)N[C@@H](Cc1ccc(O)cc1)C(N)=O)[C@@H](C)O [Compound 108, Y-Aib-E-G-T-F-T-S-D-Y-S-I-Aib-L-D-E-Q-A-Q-Aib-A-F-V-R-H-L-I-N-K(1,3)-Aib-T-R-Q-R-Y-NH2.C18DA-gGlu-gGlu-gGlu-gGlu-gGlu-eLys(1,2)]"
